Measured values reported in PubChem BioAssay AID1259407 (Chemical Carcinogenesis Research Information System (CCRIS), 2018).
Calls of active or inactive are those of the source. The rule behind the calls is not given here.

System: CCRIS mutagenicity, Ames/micronucleus/aberration tests
Assay: CCRIS mutagenicity studies
Conditions: Method: PREINCUBATION

Measured: mutagenic call

Cc1ccccc1Br
inactive: Test System: AMES SALMONELLA TYPHIMURIUM, Strain/Indicator: TA97, Metabolic Activation: HAMSTER, LIVER, S-9, AROCLOR 1254 (10%) inactive; negative | Test System: AMES SALMONELLA TYPHIMURIUM, Strain/Indicator: TA97, Metabolic Activation: HAMSTER, LIVER, S-9, AROCLOR 1254 (30%) inactive; negative | Test System: AMES SALMONELLA TYPHIMURIUM, Strain/Indicator: TA97, Metabolic Activation: NONE inactive; negative | Test System: AMES SALMONELLA TYPHIMURIUM, Strain/Indicator: TA97, Metabolic Activation: RAT, LIVER, S-9, AROCLOR 1254 (10%) inactive; negative | Test System: AMES SALMONELLA TYPHIMURIUM, Strain/Indicator: TA97, Metabolic Activation: RAT, LIVER, S-9, AROCLOR 1254 (30%) inactive; negative | Test System: AMES SALMONELLA TYPHIMURIUM, Strain/Indicator: TA98, Metabolic Activation: HAMSTER, LIVER, S-9, AROCLOR 1254 (10%) inactive; negative | Test System: AMES SALMONELLA TYPHIMURIUM, Strain/Indicator: TA98, Metabolic Activation: HAMSTER, LIVER, S-9, AROCLOR 1254 (30%) inactive; negative | Test System: AMES SALMONELLA TYPHIMURIUM, Strain/Indicator: TA98, Metabolic Activation: NONE inactive; negative | Test System: AMES SALMONELLA TYPHIMURIUM, Strain/Indicator: TA98, Metabolic Activation: RAT LIVER S-9, PHENOBARBITAL AND BETA-NAPHTHOFLAVONE inactive; negative | Test System: AMES SALMONELLA TYPHIMURIUM, Strain/Indicator: TA98, Metabolic Activation: RAT, LIVER, S-9, AROCLOR 1254 (10%) inactive; negative | Test System: AMES SALMONELLA TYPHIMURIUM, Strain/Indicator: TA98, Metabolic Activation: RAT, LIVER, S-9, AROCLOR 1254 (30%) inactive; negative | Test System: AMES SALMONELLA TYPHIMURIUM, Strain/Indicator: TA100, Metabolic Activation: HAMSTER, LIVER, S-9, AROCLOR 1254 (10%) inactive; negative | Test System: AMES SALMONELLA TYPHIMURIUM, Strain/Indicator: TA100, Metabolic Activation: HAMSTER, LIVER, S-9, AROCLOR 1254 (30%) inactive; negative | Test System: AMES SALMONELLA TYPHIMURIUM, Strain/Indicator: TA100, Metabolic Activation: NONE inactive; negative | Test System: AMES SALMONELLA TYPHIMURIUM, Strain/Indicator: TA100, Metabolic Activation: RAT LIVER S-9, PHENOBARBITAL AND BETA-NAPHTHOFLAVONE inactive; negative | Test System: AMES SALMONELLA TYPHIMURIUM, Strain/Indicator: TA100, Metabolic Activation: RAT, LIVER, S-9, AROCLOR 1254 (10%) inactive; negative | Test System: AMES SALMONELLA TYPHIMURIUM, Strain/Indicator: TA100, Metabolic Activation: RAT, LIVER, S-9, AROCLOR 1254 (30%) inactive; negative | Test System: AMES SALMONELLA TYPHIMURIUM, Strain/Indicator: TA102, Metabolic Activation: NONE inactive; negative | Test System: AMES SALMONELLA TYPHIMURIUM, Strain/Indicator: TA102, Metabolic Activation: RAT LIVER S-9, PHENOBARBITAL AND BETA-NAPHTHOFLAVONE inactive; negative | Test System: AMES SALMONELLA TYPHIMURIUM, Strain/Indicator: TA104, Metabolic Activation: NONE inactive; negative | Test System: AMES SALMONELLA TYPHIMURIUM, Strain/Indicator: TA104, Metabolic Activation: RAT LIVER S-9, PHENOBARBITAL AND BETA-NAPHTHOFLAVONE inactive; negative | Test System: AMES SALMONELLA TYPHIMURIUM, Strain/Indicator: TA1535, Metabolic Activation: HAMSTER, LIVER, S-9, AROCLOR 1254 (10%) inactive; negative | Test System: AMES SALMONELLA TYPHIMURIUM, Strain/Indicator: TA1535, Metabolic Activation: HAMSTER, LIVER, S-9, AROCLOR 1254 (30%) inactive; negative | Test System: AMES SALMONELLA TYPHIMURIUM, Strain/Indicator: TA1535, Metabolic Activation: NONE inactive; negative | Test System: AMES SALMONELLA TYPHIMURIUM, Strain/Indicator: TA1535, Metabolic Activation: RAT LIVER S-9, PHENOBARBITAL AND BETA-NAPHTHOFLAVONE inactive; negative | Test System: AMES SALMONELLA TYPHIMURIUM, Strain/Indicator: TA1535, Metabolic Activation: RAT, LIVER, S-9, AROCLOR 1254 (10%) inactive; negative | Test System: AMES SALMONELLA TYPHIMURIUM, Strain/Indicator: TA1535, Metabolic Activation: RAT, LIVER, S-9, AROCLOR 1254 (30%) inactive; negative | Test System: AMES SALMONELLA TYPHIMURIUM, Strain/Indicator: TA1537, Metabolic Activation: HAMSTER, LIVER, S-9, AROCLOR 1254 (30%) inactive; negative | Test System: AMES SALMONELLA TYPHIMURIUM, Strain/Indicator: TA1537, Metabolic Activation: NONE inactive; negative | Test System: AMES SALMONELLA TYPHIMURIUM, Strain/Indicator: TA1537, Metabolic Activation: RAT LIVER S-9, PHENOBARBITAL AND BETA-NAPHTHOFLAVONE inactive; negative | Test System: AMES SALMONELLA TYPHIMURIUM, Strain/Indicator: TA1537, Metabolic Activation: RAT, LIVER, S-9, AROCLOR 1254 (30%) inactive; negative | Test System: E.COLI, Strain/Indicator: WP2UVRA/PKM101, Metabolic Activation: NONE inactive; negative | Test System: E.COLI, Strain/Indicator: WP2UVRA/PKM101, Metabolic Activation: RAT LIVER S-9, PHENOBARBITAL AND BETA-NAPHTHOFLAVONE inactive; negative | Test System: E.COLI, Strain/Indicator: WP2UVRA, Metabolic Activation: NONE inactive; negative | Test System: E.COLI, Strain/Indicator: WP2UVRA, Metabolic Activation: RAT LIVER S-9, PHENOBARBITAL AND BETA-NAPHTHOFLAVONE inactive; negative
